Data from patent US20040077676A1 (priority 2003, published 2004).

Tests used:
sciatic nerve crush = experiment: Functional recovery in the rat sciatic nerve crush model (semi-quantitative behavioral score); format: in vivo; conditions: scale 0-4
Method: Nine 6-week-old male Sprague-Dawley rats were anesthetized with 2% halothane, the right sciatic nerve was exposed, and the nerve was crushed twice (for a total of 60 s using a No.7 Dumont jeweler's forceps) at the level of the hip. The crush site was marked by tying a sterile 9-0 suture through the epineurial sheath.
Compound (Ia) was dissolved in vehicle comprising 30% dimethylsulfoxide (DMSO):70% saline. Three axotomized rats received subcutaneous daily injections either Compound (Ia) (1 or 5 mg/kg) or an equivalent volume of vehicle (30% DMSO in saline) (5ml/kg)
Animals were examined daily until the day of perfusion (18 days). The following semi-quantitative scale was used to evaluate the functional recovery of the animals:
0: paralysis with the foot turned-out upon walking and the toes curved;
1: ability to right the foot and move the toes;
2: ability to constantly walk on the foot;
For the behavioral analysis, mean values for recovery of function were compared using one-way ANOVA followed by the Newman-Keuls multiple comparisons test for comparison of individual values. For the morphometric analysis, mean values for the number of axons were compared using one-way ANOVA followed by the Newman Keuls multiple comparisons test for comparison of individual values.

FKBP12 = FKBP12 (Homo sapiens, UniProt P62942); experiment: Binding assay to FKBP12; conditions: in vitro
Method: The binding assay was performed according to a similar manner to that of Tamura, K., et al (Biochemical arid Biophysical Research Communications, Vol. 202, No. 1, 437-499, 1994).

[1] = tested on: Mixed lymphocyte reaction (MLR); experiment: Mixed lymphocyte reaction (MLR); format: cell-based; conditions: for IC50: Lymphocyte, in vitro
Method: MLR test was performed according to a similar manner to that of U.S. Pat. No. 4,929,611

[2] = tested on: SH-SY5Y human neuroblastoma cells; experiment: Neurite lengths in NGF-treated SH-SY5Y neuroblastoma cells; format: cell-based; conditions: NGF 10 ng/ml alone; SH-SY5Y cells at 168 hr; mean
Method: SH-SY5Y human neuroblastoma cells were maintained in DMEM medium (GIBCO) supplemented with 10% fetal calf serum (SIGMA), 50 I.U./ml of penicillin, and 50μg/ml streptomycin (GIBCO) at 37° C. in 7% CO2. Cells were plated in six-well plates at 15,000 cells/well and treated with 0.4 μM aphidicolin (SIGMA). […] Medium was changed at 96 h and replaced with fresh medium for an additional 72 h (total time, 168 h). Duplicate wells were run in all experiments and the data were averaged for each treatment group. Analysis of neurite lengths in SH-SY5Y neuroblastoma cells:
For analysis of process length, cells (20 fields per well) were randomly photographed at 168 h. Neurite lengths were measured on photographic prints using a Houston Instrument HI-PAD digitizing tablet connected to an IBM XT computer with appropriate software (Bioquant IV, R & M Biometrics, Nashville, Tenn.); only those processes greater than two-fold of the cell body length were measured. Data from identically treated wells were not different and were therefore combined.

[3] = tested on: Embryonic hippocampal neurons; experiment: Neurite (axon) lengths in primary embryonic hippocampal neuron cultures; format: cell-based, rat; conditions: 10 nM, primary hippocampal cell cultures in rats at 72 hr, mean
Method: Embryonic hippocampal neurons were obtained from rat pups on embryonic day 18.5 (“El8.5”), according to Banker and Cowan (Brain Research, 1977, 126: 397425). Briefly, the hippocampal regions were removed, minced, and incubated in 100 I.U. papain at 37° C. for 45 min, and the cells were resuspended in complete neuronal medium: minimal essential medium without L-glutamine (GIBCO, Grand Island, NY), 1.5 ml/100 ml medium of high glucose minimal essential medium (GIBCO), 0.1 ml/100 ml medium of serum extender (Hito +Tm; Collaborative Research Inc, Lexington, Mass.), glutamine (GIBCO), 5% fetal calf serum (GIBCO). Cells were seeded onto coverslips (500 cells/coverslip) coated with poly-L-lysine. The coverslips were inverted onto dishes that had been precoated with a monolayer of cortical astrocytes. Hippocampal neurons (identified by their characteristic polarity and dendrites) were examined daily and randomly photographed (9-12 frames/coverslip) at 72 h. Axon (defined as the longest process) lengths were measured on photographic prints using a Houston Instrument HI-PAD digitizing tablet connected to an IBM XT computer with appropriate software (Bioquant IV, R & M Biometrics, Nashville, TN); only processes more than three-fold of the cell body length were measured. Data from identically treated coverslips (three or four per group) were not different and therefore were combined.

Chain of FKBP12 (P62942 whole entry, species assumed): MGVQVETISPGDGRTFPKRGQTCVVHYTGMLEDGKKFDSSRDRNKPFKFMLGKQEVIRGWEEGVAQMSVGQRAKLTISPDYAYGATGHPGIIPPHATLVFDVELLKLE

CO[C@H]1C[C@@H](C)C/C(C)=C/C(CC(C)=O)C(=O)C[C@H](O)[C@@H](C)[C@@H](/C(C)=C/[C@@H]2CC[C@@H](O)[C@H](OC)C2)OC(=O)[C@@H]2CCCCN2C(=O)C(=O)[C@]2(O)OC1[C@@H](OC)C[C@H]2C (stereo partly shown) [Compound (Ia)] was tested, and the “Functional Score” value (sciatic nerve crush; 1 mg/kg s.c. daily, Day 15) was 2.58 ± 0.17, the “Functional Score” value (sciatic nerve crush; 1 mg/kg s.c. daily, Day 16) was 2.83 ± 0.17 and the “Functional Score” value (sciatic nerve crush; 1 mg/kg s.c. daily, Day 17) was 3.08 ± 0.22. For the same compound, the “Functional Score” value (sciatic nerve crush; 5 mg/kg s.c. daily, Day 15) was 3.17 ± 0.08, the “Functional Score” value (sciatic nerve crush; 5 mg/kg s.c. daily, Day 16) was 3.50 ± 0.00 and the “Functional Score” value (sciatic nerve crush; 5 mg/kg s.c. daily, Day 17) was 3.50 ± 0.00. The IC50 (FKBP12) was < 5 nM, the IC50 [1] was > 100 nM and the immunosuppressive activity ([1]; conclusion in words from MLR result) was “does not have immunosuppressive activity”.
“NGF: nerve growth factor, used at 10 ng/ml to induce process outgrowth” was tested, and the “Neurite Lengths” value [2] was 198.8 ± 8.991 μm.
For C=CC[C@@H]1/C=C(\C)C[C@H](C)C[C@H](OC)[C@H]2O[C@@](O)(C(=O)C(=O)N3CCCC[C@H]3C(=O)O[C@H](/C(C)=C/[C@@H]3CC[C@@H](O)[C@H](OC)C3)[C@H](C)[C@@H](O)CC1=O)[C@H](C)C[C@@H]2OC [Tacrolimus, tacrolimus], the “Neurite Lengths” value [3] was 423.4 ± 19.50 μm, the “Neurite Lengths” value ([3]; listed as tacrolimus) was “no significant difference” and the IC50 [1] was < 2 nM.
